The record followed here is patent US20230111310A1, “CARBOXYLIC ACID DERIVATIVE-SUBSTITUTED IMINO ARYL COMPOUND, PREPARATION METHOD THEREFOR, HERBICIDAL COMPOSITION AND USE THEREOF” (Qingdao Kingagroot Chemical Compound Co., Ltd., priority 2020, published 2023).

Common to all, as to assay: Weeding effect in post-emergence stage
Holding throughout (assay type): in vivo
Conditions in all cases: fresh weight control rate level

One assay deals with Echinochloa crusgalli. Summed up: (§1)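 Pot-grown weeds were sprayed at the 2-3 leaf stage, 2 weeks after sowing, with compound in acetone plus Tween 80 and 1.5 liter/ha methyl oleate emulsifiable concentrate, diluted in water. Doses were 500, 250, 125, 60, 30, 15, 7.5 g/ha. Growth control was scored after 3 weeks in greenhouse; mean of three replicates.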
In another assay the test system is Alopecurus japonicus. Put shortly:
as §1

The test system of a further assay is Abutilon theophrasti. Put shortly: as §1
The next assay relates to Digitaria sanguinalis. Put shortly:
as §1

The next assay concerns Eleusine indica. Put shortly:
as §1

In a further assay the test system is Setaria viridis. Put shortly:
as §1

As for `COC(=O)CSC(=O)C(C)O/N=C/c1cc(-n2c(=O)cc(C(F)(F)F)n(C)c2=O)c(F)cc1Cl` (stereo not drawn) [Compound 406], the “Weeding effect in post-emergence stage, Echinochloa crusgalli (level)” value (shortened to “Weeding effect … Echinochloa crusgalli (level)”) in the assay with Echinochloa crusgalli (Dose 15 g/ha) was 5 (Level 5: growth control rate is above 85%). Besides, in the assay with Alopecurus japonicus (Dose 15 g/ha), the “Weeding effect in post-emergence stage, Alopecurus japonicus (level)” value (from here on “Weeding effect … Alopecurus japonicus (level)”) was 4 (Level 4: growth control rate is greater than or equal to 60% and less than 85%). In the assay on Abutilon theophrasti (Dose 15 g/ha), the “Weeding effect in post-emergence stage, Abutilon theophrasti (level)” value (“Weeding effect … Abutilon theophrasti (level)” below) is listed as 5 (Level 5: growth control rate is above 85%). For the same compound, in the assay with Digitaria sanguinalis (Dose 15 g/ha), the “Weeding effect in post-emergence stage, Digitaria sanguinalis (level)” value (shortened to “Weeding effect … Digitaria sanguinalis (level)”) is 5 (Level 5: growth control rate is above 85%). Moreover, the “Weeding effect in post-emergence stage, Eleusine indica (level)” value (from here on “Weeding effect … Eleusine indica (level)”) in the assay on Eleusine indica (Dose 15 g/ha) was 5 (Level 5: growth control rate is above 85%). In addition, in the assay on Setaria viridis (Dose 15 g/ha), the “Weeding effect in post-emergence stage, Setaria viridis (level)” value (shortened to “Weeding effect … Setaria viridis (level)”) was 5 (Level 5: growth control rate is above 85%).

For the compound `CC(O/N=C/c1cc(-n2c(=O)cc(C(F)(F)F)n(C)c2=O)c(F)cc1Cl)C(=O)SCc1ccccc1` (stereo not drawn) [Compound 409], in the assay on Echinochloa crusgalli (Dose 30 g/ha), the “Weeding effect … Echinochloa crusgalli (level)” value is on record as 5 (Level 5: growth control rate is above 85%). Besides, the “Weeding effect … Alopecurus japonicus (level)” value in the assay on Alopecurus japonicus (Dose 30 g/ha) is recorded as 5 (Level 5: growth control rate is above 85%). For the same compound, the “Weeding effect … Abutilon theophrasti (level)” value in the assay with Abutilon theophrasti (Dose 30 g/ha) is on record as 5 (Level 5: growth control rate is above 85%). The “Weeding effect … Digitaria sanguinalis (level)” value with Digitaria sanguinalis (Dose 30 g/ha) is 5 (Level 5: growth control rate is above 85%). Further, the “Weeding effect … Eleusine indica (level)” value with Eleusine indica (Dose 30 g/ha) is given as 5 (Level 5: growth control rate is above 85%). The “Weeding effect … Setaria viridis (level)” value with Setaria viridis (Dose 30 g/ha) is recorded as 5 (Level 5: growth control rate is above 85%).

On to `COC(=O)CCNC(=O)C(C)O/N=C/c1cc(-n2c(=O)cc(C(F)(F)F)n(C)c2=O)c(F)cc1Cl` (stereo not drawn) [Compound 416], for which the “Weeding effect … Echinochloa crusgalli (level)” value in the assay with Echinochloa crusgalli (Dose 15 g/ha) was 5 (Level 5: growth control rate is above 85%). In the assay on Alopecurus japonicus (Dose 15 g/ha), the “Weeding effect … Alopecurus japonicus (level)” value was 4 (Level 4: growth control rate is greater than or equal to 60% and less than 85%). Besides, the “Weeding effect … Abutilon theophrasti (level)” value in the assay with Abutilon theophrasti (Dose 15 g/ha) was 5 (Level 5: growth control rate is above 85%). In addition, the “Weeding effect … Digitaria sanguinalis (level)” value in the assay on Digitaria sanguinalis (Dose 15 g/ha) is given as 5 (Level 5: growth control rate is above 85%). Further, the “Weeding effect … Eleusine indica (level)” value in the assay with Eleusine indica (Dose 15 g/ha) is reported as 5 (Level 5: growth control rate is above 85%). The “Weeding effect … Setaria viridis (level)” value in the assay on Setaria viridis (Dose 15 g/ha) is listed as 5 (Level 5: growth control rate is above 85%).

Consider `CON(C)C(=O)C(C)O/N=C/c1cc(-n2c(=O)cc(C(F)(F)F)n(C)c2=O)c(F)cc1Cl` (stereo not drawn) [Compound 419], for which the “Weeding effect … Echinochloa crusgalli (level)” value in the assay with Echinochloa crusgalli (Dose 15 g/ha) is listed as 5 (Level 5: growth control rate is above 85%). In the assay with Alopecurus japonicus (Dose 15 g/ha), the “Weeding effect … Alopecurus japonicus (level)” value is 5 (Level 5: growth control rate is above 85%). For the same compound, the “Weeding effect … Abutilon theophrasti (level)” value with Abutilon theophrasti (Dose 15 g/ha) is listed as 5 (Level 5: growth control rate is above 85%). Further, the “Weeding effect … Digitaria sanguinalis (level)” value in the assay on Digitaria sanguinalis (Dose 15 g/ha) is 5 (Level 5: growth control rate is above 85%). The “Weeding effect … Eleusine indica (level)” value in the assay on Eleusine indica (Dose 15 g/ha) is listed as 5 (Level 5: growth control rate is above 85%). The “Weeding effect … Setaria viridis (level)” value in the assay on Setaria viridis (Dose 15 g/ha) was 5 (Level 5: growth control rate is above 85%).

With `CC(O/N=C/c1cc(-n2c(=O)cc(C(F)(F)F)n(C)c2=O)c(F)cc1Cl)C(=O)NS(=O)(=O)N(C)C(C)C` (stereo not drawn) [Compound 421], the “Weeding effect … Echinochloa crusgalli (level)” value in the assay on Echinochloa crusgalli (Dose 15 g/ha) is on record as 5 (Level 5: growth control rate is above 85%). Moreover, in the assay with Alopecurus japonicus (Dose 15 g/ha), the “Weeding effect … Alopecurus japonicus (level)” value is 5 (Level 5: growth control rate is above 85%). Moreover, the “Weeding effect … Abutilon theophrasti (level)” value with Abutilon theophrasti (Dose 15 g/ha) is reported as 5 (Level 5: growth control rate is above 85%). Moreover, the “Weeding effect … Digitaria sanguinalis (level)” value in the assay with Digitaria sanguinalis (Dose 15 g/ha) is given as 5 (Level 5: growth control rate is above 85%). In addition, the “Weeding effect … Eleusine indica (level)” value with Eleusine indica (Dose 15 g/ha) is on record as 5 (Level 5: growth control rate is above 85%). Moreover, the “Weeding effect … Setaria viridis (level)” value in the assay with Setaria viridis (Dose 15 g/ha) is 5 (Level 5: growth control rate is above 85%).
